We go through 7 compounds from paper PMC4727773, “Design, Synthesis, and Biological Evaluation of New 2-Phenyl-4H-chromen-4-one Derivatives as Selective Cyclooxygenase-2 Inhibitors” (Scientia Pharmaceutica, 2014).

The structures appear in SMILES notation.

The target in one series is T1, ovine COX-1 (Ovis aries, UniProt P05979).
T1 construct: purchased Cayman Chemical, Ann Arbor, MI, USA
T1 sequence (P05979 25-600): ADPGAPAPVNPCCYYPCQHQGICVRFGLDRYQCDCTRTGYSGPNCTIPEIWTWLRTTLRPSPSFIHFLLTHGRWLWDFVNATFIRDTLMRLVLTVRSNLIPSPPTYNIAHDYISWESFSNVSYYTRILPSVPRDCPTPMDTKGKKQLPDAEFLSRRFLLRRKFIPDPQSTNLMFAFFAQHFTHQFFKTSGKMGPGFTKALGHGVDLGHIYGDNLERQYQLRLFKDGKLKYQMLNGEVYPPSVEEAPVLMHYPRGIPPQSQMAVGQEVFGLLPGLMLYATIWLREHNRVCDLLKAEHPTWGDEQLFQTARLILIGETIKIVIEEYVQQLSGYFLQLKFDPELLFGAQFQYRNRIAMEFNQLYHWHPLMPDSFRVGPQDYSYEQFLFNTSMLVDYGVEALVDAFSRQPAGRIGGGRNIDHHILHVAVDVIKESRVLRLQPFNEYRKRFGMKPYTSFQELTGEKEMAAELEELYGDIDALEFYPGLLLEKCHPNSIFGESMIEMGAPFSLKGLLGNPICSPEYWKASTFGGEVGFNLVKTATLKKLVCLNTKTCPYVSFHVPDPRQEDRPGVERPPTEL
Kind of series: In vitro ovine COX-1 enzyme inhibition (chemiluminescent enzyme assay kit, Cayman). The note with it: ovine COX-1/COX-2 assay kit; means of two determinations, deviation < 10% of the mean. The series is classed as biochemical. How it is done:
(§1) The ability of the test compounds listed in Table 1 to inhibit ovine COX-1 and COX-2 (IC50 value, μM) was determined using the chemiluminescent enzyme assay kit (Cayman Chemical, Ann Arbor, MI, USA) according to our previously reported method.

For a further series, the target named is T2, ovine COX-2 (Ovis aries, UniProt P79208).
T2 construct: purchased Cayman Chemical, Ann Arbor, MI, USA
T2 sequence (P79208 17-603): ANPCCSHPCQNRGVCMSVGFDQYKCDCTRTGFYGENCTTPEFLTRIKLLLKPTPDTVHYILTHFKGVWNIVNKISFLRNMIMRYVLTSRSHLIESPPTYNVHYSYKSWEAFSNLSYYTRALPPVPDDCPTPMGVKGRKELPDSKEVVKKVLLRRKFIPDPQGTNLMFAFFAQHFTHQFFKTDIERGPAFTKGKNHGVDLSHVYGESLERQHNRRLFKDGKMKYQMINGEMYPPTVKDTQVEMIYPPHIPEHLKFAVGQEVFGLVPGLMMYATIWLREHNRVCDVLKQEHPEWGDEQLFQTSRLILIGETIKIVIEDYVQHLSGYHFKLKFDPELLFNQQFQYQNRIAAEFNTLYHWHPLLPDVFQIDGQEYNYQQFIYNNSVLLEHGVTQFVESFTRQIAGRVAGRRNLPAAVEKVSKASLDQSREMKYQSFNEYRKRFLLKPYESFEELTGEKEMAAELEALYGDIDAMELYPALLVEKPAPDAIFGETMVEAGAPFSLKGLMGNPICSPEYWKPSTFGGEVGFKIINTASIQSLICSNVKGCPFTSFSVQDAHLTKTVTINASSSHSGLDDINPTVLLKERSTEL
Briefly: In vitro ovine COX-2 enzyme inhibition (chemiluminescent enzyme assay kit, Cayman). It is filed as biochemical. The note with it: for Selectivity index (SI): In vitro COX-2 selectivity index (COX-1 IC50/COX-2 IC50); for IC50: ovine COX-1/COX-2 assay kit, means of two determinations, deviation < 10% of the mean. The protocol: as §1

`CCOc1c(-c2ccc(S(C)(=O)=O)cc2)oc2ccccc2c1=O` [Compound 5b, 3-Ethoxy-2-[4-(methylsulfonyl)phenyl]-4H-chromen-4-one] showed a melting point of 137 to 138 °C. On ovine COX-1, this compound displayed an IC50 of 13.4 µM. On ovine COX-2, the “Selectivity index (SI)” value was found to be 149.1 and the 50% inhibitory concentration (IC50) is 0.09 µM.

Regarding `CC(=O)Oc1c(-c2ccc(S(C)(=O)=O)cc2)oc2ccccc2c1=O` [Compound 6, 2-[4-(Methylsulfonyl)phenyl]-4-oxo-4H-chromen-3-yl acetate], the melting point was determined as 175 °C. The compound further returned an IC50 against ovine COX-1 of 15.6 µM. In addition, on ovine COX-2, the “Selectivity index (SI)” value is given as 195.6 and 0.08 µM corresponded to half-maximal inhibition (IC50).

Compound `COc1c(-c2ccc(S(C)(=O)=O)cc2)oc2ccccc2c1=O` [Compound 5a, 3-Methoxy-2-[4-(methylsulfonyl)phenyl]-4H-chromen-4-one] yielded a melting point of 92 to 93 °C. This compound also had a 50% inhibitory concentration (IC50) against ovine COX-1 of 12.7 µM. Also, on ovine COX-2, the “Selectivity index (SI)” value is 126.5 and the midpoint of inhibition, the IC50, lay at 0.1 µM.

On to `CS(=O)(=O)c1ccc(-c2cc(=O)c3ccccc3o2)cc1` [Compound 3, 2-[4-(Methylsulfonyl)phenyl]-4H-chromen-4-one], for which the melting point turned out to be 187 °C. Moreover, the IC50 against ovine COX-1 was 10.8 µM. Also, at ovine COX-2, the “Selectivity index (SI)” value turned out to be 98.2 and the IC50 stood at 0.11 µM.

On to `C=CCOc1c(-c2ccc(S(C)(=O)=O)cc2)oc2ccccc2c1=O` [Compound 5c, 3-(Allyloxy)-2-[4-(methylsulfonyl)phenyl]-4H-chromen-4-one], for which the melting point lay in the range of 116 to 118 °C. At ovine COX-1, the IC50 is 13.8 µM. Besides, at ovine COX-2, the “Selectivity index (SI)” value is 173.1 and the concentration for half-maximal inhibition (IC50) is 0.08 µM.

In turn, `CS(=O)(=O)c1ccc(-c2oc3ccccc3c(=O)c2O)cc1` [Compound 4, 3-Hydroxy-2-[4-(methylsulfonyl)phenyl]-4H-chromen-4-one] displayed a melting point of 198 to 199 °C. It took 9.79 µM to reach half-maximal inhibition at ovine COX-1 (IC50). For the same compound, on ovine COX-2, the “Selectivity index (SI)” value is recorded as 75.3 and half-maximal inhibition (IC50) required 0.13 µM.

The compound `CS(=O)(=O)c1ccc(-c2oc3ccccc3c(=O)c2OCc2ccccc2)cc1` [Compound 5d, 3-(Benzyloxy)-2-[4-(methylsulfonyl)phenyl]-4H-chromen-4-one] gave a melting point of 140 to 142 °C. This compound displayed an IC50 on ovine COX-1 of 20.1 µM. At ovine COX-2, the “Selectivity index (SI)” value was found to be 287.1 and the IC50 was determined as 0.07 µM.

As usually defined, the IC50 is the midpoint of a concentration-inhibition curve. For orientation: melting point means the temperature, or range, at which the solid turns liquid.
